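1) Cells in 96-well plates. 2) Compound, 48 h, 5 concentrations. 3) Linear interpolation between surrounding doses. 4) Unreached endpoint = highest concentration. GI50: concentration for 50% inhibition of growth.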 Calls of active or inactive are those of the source. No stated cut-off is given here; in the data, active = GI50 up to about 1.1 µM and inactive = higher. Where a SMILES comes first, the peptide text is derived from it. [ ]: non-standard residue; d: D form. The star is where a group is joined. ξ: configuration not given here. ξPhe(4-NO2) = NC(Cc1ccc([N+](=O)[O-])cc1)C(=O)O; Boc = CC(C)(C)OC(=O)*
Columns and labels:
Assay in all cases: inhibition of tumour cell growth, NCI panel, 48 h
[1] = test system: HCT-15
[2] = test system: M14
[3] = test system: CCRF-CEM
[4] = test system: CAKI-1
[5] = test system: OVCAR-8
[6] = test system: SF-268
[7] = test system: KM-20L2
[8] = test system: SW-620
[9] = test system: HL-60
[10] = test system: MOLT-4
[11] = test system: SNB-19
[12] = test system: COLO 205
[13] = test system: K562
[14] = test system: KM12
[15] = test system: NCI-H226
[16] = test system: HOP-92
[17] = test system: MDA-N
[18] = test system: Hs-578T
[19] = test system: MDA-MB-231
[20] = test system: OVCAR-5

| Compound | GI50 [1] | GI50 [2] | GI50 [3] | GI50 [4] | GI50 [5] | GI50 [6] | GI50 [7] | GI50 [8] | GI50 [9] | GI50 [10] | GI50 [11] | GI50 [12] | GI50 [13] | GI50 [14] | GI50 [15] | GI50 [16] | GI50 [17] | GI50 [18] | GI50 [19] | GI50 [20] |
| --- | --- | --- | --- | --- | --- | --- | --- | --- | --- | --- | --- | --- | --- | --- | --- | --- | --- | --- | --- | --- |
| NC1CCCCC1.O=C(O)C1(P(=O)(O)O)CC1 | > 100 µM | 25.5 µM (inactive) | > 100 µM (inactive) | > 100 µM (inactive) | > 100 µM (inactive) | > 100 µM (inactive) | > 100 µM (inactive) | > 100 µM (inactive) | > 100 µM (inactive) | > 100 µM (inactive) | > 100 µM (inactive) | > 100 µM (inactive) | > 100 µM (inactive) | > 100 µM (inactive) | – | – | – | – | – | – |
| CN(C)c1ccc(/C(F)=C(F)/C(F)=C(F)/C(F)=C(\F)c2ccc(Br)cc2)cc1 | 13.3 µM | 16.1 µM (inactive) | 29.4 µM (inactive) | 18.7 µM (inactive) | 33 µM (inactive) | 51.8 µM (inactive) | – | 22.1 µM (inactive) | 8.97 µM (inactive) | 25.6 µM (inactive) | 23.7 µM (inactive) | 23.4 µM (inactive) | 13.2 µM (inactive) | 9.53 µM (inactive) | 50 µM (inactive) | 47.6 µM (inactive) | 2.43 µM (inactive) | 17.2 µM (inactive) | 39.5 µM (inactive) | 23.8 µM (inactive) |
| COC(=O)c1ccccc1N1C(=O)Cc2ccccc2C1=O | > 100 µM | – | – | – | 75.9 µM (inactive) | 55.1 µM (inactive) | > 100 µM (inactive) | > 100 µM (inactive) | – | > 100 µM (inactive) | > 100 µM (inactive) | > 100 µM (inactive) | > 100 µM (inactive) | > 100 µM (inactive) | > 100 µM (inactive) | – | – | – | – | > 100 µM (inactive) |
| Cc1[nH]c2ccccc2c1-c1n[nH]c(=O)c2ccccc12 | 5.33 µM | 21 µM (inactive) | 22.9 µM (inactive) | 13.4 µM (inactive) | 32.5 µM (inactive) | – | 25.2 µM (inactive) | 16.1 µM (inactive) | 7.82 µM (inactive) | 20.5 µM (inactive) | – | – | 5.25 µM (inactive) | 11.3 µM (inactive) | 18.7 µM (inactive) | – | – | – | – | 46.5 µM (inactive) |
| CCCCOc1ccc(/C=C/C2=[N+](CCO)CCO2)cc1 | 51.9 µM | 76.7 µM (inactive) | 30.4 µM (inactive) | 67.5 µM (inactive) | 70.1 µM (inactive) | > 100 µM (inactive) | – | 33.6 µM (inactive) | 21.7 µM (inactive) | 53 µM (inactive) | > 100 µM (inactive) | 24.7 µM (inactive) | 24 µM (inactive) | 34 µM (inactive) | 27.2 µM (inactive) | 44.3 µM (inactive) | > 100 µM (inactive) | > 100 µM (inactive) | 61.9 µM (inactive) | > 100 µM (inactive) |
| Cc1cc(Nc2ccc(/N=N/c3ccc(O)c4ncccc34)cc2)nc(C)n1 | 4.37 µM | 12.6 µM (inactive) | 2.75 µM (inactive) | 25.7 µM (inactive) | 6.61 µM (inactive) | 14.6 µM (inactive) | – | 13.5 µM (inactive) | 3.97 µM (inactive) | 3.93 µM (inactive) | 8.53 µM (inactive) | 20.8 µM (inactive) | 3.78 µM (inactive) | 12.4 µM (inactive) | 18.3 µM (inactive) | 9.75 µM (inactive) | 6.62 µM (inactive) | 7.03 µM (inactive) | 24.9 µM (inactive) | 35.2 µM (inactive) |
| CNC(C)(C)Cc1ccc(Cl)cc1 | – | > 100 µM (inactive) | > 100 µM (inactive) | > 100 µM (inactive) | > 100 µM (inactive) | > 100 µM (inactive) | > 100 µM (inactive) | > 100 µM (inactive) | – | > 100 µM (inactive) | – | > 100 µM (inactive) | > 100 µM (inactive) | > 100 µM (inactive) | – | – | – | – | – | – |
| O=C(O)c1nc(-c2ccccc2)ncc1-c1nnnn1-c1ccccc1 | > 100 µM | > 100 µM (inactive) | > 100 µM (inactive) | > 100 µM (inactive) | > 100 µM (inactive) | > 100 µM (inactive) | – | > 100 µM (inactive) | > 100 µM (inactive) | > 100 µM (inactive) | > 100 µM (inactive) | > 100 µM (inactive) | > 100 µM (inactive) | > 100 µM (inactive) | > 100 µM (inactive) | > 100 µM (inactive) | > 100 µM (inactive) | > 100 µM (inactive) | > 100 µM (inactive) | > 100 µM (inactive) |
| COC(=O)CCC(=O)c1ccc2c(c1)CC1(C2)Cc2ccc3c(c2C1)CCCC3=O (stereo not drawn) | 8.15 µM | 9.1 µM (inactive) | 1.78 µM (inactive) | 16.4 µM (inactive) | 26.7 µM (inactive) | 33.8 µM (inactive) | – | 20.7 µM (inactive) | 3.94 µM (inactive) | 0.489 µM (active) | 27.2 µM (inactive) | 21.5 µM (inactive) | 2.88 µM (inactive) | 14.7 µM (inactive) | 27.8 µM (inactive) | 15.5 µM (inactive) | 4.85 µM (inactive) | 56.1 µM (inactive) | > 73.5 µM (inactive) | 40.1 µM (inactive) |
| COC(=O)C1C2OC(C)(C)OC2CN1S(=O)(=O)c1ccc(C)cc1 (stereo not drawn) | > 100 µM | > 100 µM (inactive) | > 100 µM (inactive) | > 100 µM (inactive) | > 100 µM (inactive) | > 100 µM (inactive) | – | > 100 µM (inactive) | > 100 µM (inactive) | > 100 µM (inactive) | > 100 µM (inactive) | > 100 µM (inactive) | > 100 µM (inactive) | > 100 µM (inactive) | 0.0527 µM (active) | > 100 µM (inactive) | > 100 µM (inactive) | > 100 µM (inactive) | > 100 µM (inactive) | > 100 µM (inactive) |
| CC1C=CC(C)C2(O)C(=O)NC(O)C12 (stereo not drawn) | > 100 µM | > 100 µM (inactive) | > 100 µM (inactive) | > 100 µM (inactive) | > 100 µM (inactive) | > 100 µM (inactive) | > 100 µM (inactive) | > 100 µM (inactive) | > 100 µM (inactive) | > 100 µM (inactive) | > 100 µM (inactive) | > 100 µM (inactive) | > 100 µM (inactive) | > 100 µM (inactive) | > 100 µM (inactive) | – | – | – | – | – |
| CCNC(=O)CNC(=O)C(Cc1ccc([N+](=O)[O-])cc1)NC(=O)OC(C)(C)C (stereo not drawn) (Boc-[ξPhe(4-NO2)]-Gly-NHEt) | > 100 µM | > 100 µM (inactive) | > 100 µM (inactive) | > 100 µM (inactive) | > 100 µM (inactive) | > 100 µM (inactive) | – | > 100 µM (inactive) | > 100 µM (inactive) | > 100 µM (inactive) | > 100 µM (inactive) | > 100 µM (inactive) | > 100 µM (inactive) | > 100 µM (inactive) | > 100 µM (inactive) | > 100 µM (inactive) | > 100 µM (inactive) | > 100 µM (inactive) | > 100 µM (inactive) | > 100 µM (inactive) |
